Measured values published in ChEMBL document CHEMBL1130656, “Thyrotropin releasing hormone analogs: a building block approach to the construction of tetracyclic peptidomimetics” (Bioorg Med Chem Lett, 1998).
Non-standard residues stand in square brackets, D forms with d. Residues, ends and D or L forms follow the SMILES beside them. Cha = N[C@@H](CC1CCCCC1)C(=O)O; pGlu = O=C1CC[C@@H](C(=O)O)N1

Tests used:
[1] = molecular target: T1, Thyrotropin-releasing hormone receptor (Mus musculus, UniProt P21761); test: Ability to activate thyroliberin endocrine receptor (TRH-R) using AtT-20 mouse pituitary tumor cells prelabelled with myo-[3H] inositol
T1 sequence (P21761 whole entry): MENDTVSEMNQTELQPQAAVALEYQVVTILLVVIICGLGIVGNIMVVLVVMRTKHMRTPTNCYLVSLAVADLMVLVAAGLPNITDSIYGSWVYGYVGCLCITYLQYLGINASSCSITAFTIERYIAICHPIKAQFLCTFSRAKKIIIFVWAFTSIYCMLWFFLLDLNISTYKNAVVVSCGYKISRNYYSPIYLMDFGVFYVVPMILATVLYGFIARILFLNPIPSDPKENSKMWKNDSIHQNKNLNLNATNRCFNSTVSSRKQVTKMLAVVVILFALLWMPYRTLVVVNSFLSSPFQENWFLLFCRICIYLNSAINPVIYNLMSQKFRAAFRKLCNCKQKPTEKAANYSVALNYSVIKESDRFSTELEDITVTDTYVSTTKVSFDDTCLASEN

[2] = molecular target: T1, Thyrotropin-releasing hormone receptor; test: Ability to bind thyroliberin endocrine receptor (TRH-R) using AtT-20 mouse pituitary tumor cells.

NC(=O)[C@@H]1CCCN1C(=O)[C@H](CC1CCCCC1)NC(=O)[C@@H]1CCC(=O)N1 ([pGlu]-[Cha]-Pro-NH2)
EC50 [1]: 430 nM
Ki [2]: 6.5 µM

NC(=O)[C@@H]1CCC2CC(C3CCCCC3)=C(N3CC[C@]4(CCC(=O)N4)C3=O)C(=O)N21 (single isomer, unassigned; 2a)
EC50 [1]: 1800 nM
Ki [2]: 1.5 µM

NC(=O)[C@@H]1CCC2CC(C3CCCCC3)=C(N3CC[C@]4(CCC(=O)N4)C3=O)C(=O)N21 (single isomer, unassigned; 2b)
EC50 [1]: 18000 nM
Ki [2]: 36 µM

NC(=O)[C@@H]1CCCN1C(=O)[C@H](Cc1cnc[nH]1)NC(=O)[C@@H]1CCC(=O)N1 [PROTIRELIN]
EC50 [1]: 0.49 nM
Ki [2]: 0.023 µM
